# Measurements taken from US9834535B2, “Sulfamate derivative compounds for use in treating or alleviating pain” (Bio-Pharm Solutions Co., Ltd., priority 2013, dated 2017).
# How the values were obtained:
# Format in all cases: in vivo, Sprague-Dawley rats
# CFA-induced pain model = assay: Antiallodynic activity on Complete Freund's Adjuvant (CFA)-induced inflammatory pain model (von Frey); settings: ip; rat, intraperitoneal, von Frey, 0.5 h
# SNL model = assay: Antiallodynic activity on Chung model (SNL, spinal nerve ligation; von Frey); settings: rat, oral, von Frey, 1 h
# Experimental: Male. Sprague-Dawley rats (200-220 g, Orient Bio, Korea) were habituated for 1 week before the experiment and allowed free access to food and water throughout the experimentation. Room temperature and humidity were maintained at 24±2° C. and 50±10%, respectively. Neuropathic surgery (SNL, Spinal nerve ligation) model was clone as described in Kim and Chung (1992). Briefly, animal under gaseous anesthesia with isoflurane a 4:4 flow ratio of NO2. The left lumber spinal nerve L5 and L6 were isolated and tightly ligated with 4-0 silk thread. The wound was treated with a gentamicin antibiotics solution (4 mg/kg, 4 ul/g, bw), and the wound muscle was closed with cat cut chrom 4/0 thread and skin was closed dafilon 4/0 tread. Sham controls were prepared in the same manner as the spinal nerves were exposed, but no ligated L5 and L6 nerves. But, vehicle controls were identical to SNL model, except for administration of vehicles.
# Tactile sensitivity (Mechanical allodynia) was evaluated using von Frey monofilaments before and after treatment and animals were used withdrawal threshold value was less than 4 g. One week after surgery, SNL-operated animals (n=4˜6), sham-operated animals (n=4˜10) and vehicle-operated animals (n=4˜13) were tested for tactile sensitivity with von Frey monofilaments 3 trials in each animal. All Animals were placed in a stainless steel mashed chamber and habituated for 30 min in the test box. The tactile sensitivity for ipsilateral hind paw was measured using the up-and-down method (Dixon, 1980) with seven von Frey monofilaments (0.4, 1, 2, 4, 6, 8, and 15 g) to 3 trials. Tactile sensitivity test was followed by Dixon's method (Dixon, 1980). The 50% paw withdrawal threshold for each paw was calculated using the following formula: [Xth] log=[vFr] log+ky where [vFr] is the force of the last von Frey used, k=0.2249 which is the average interval (in log units) between the von Frey monofilaments, and y is a value that depends upon the pattern of withdrawal responses (Dixon, 1980).
# All animals were fasted 18 h before the administration of the compounds. The antiallodynic effect of the compounds were evaluated at the various dose (n=5˜6), orally administrated in a volume of 5 ul/g, bw in a vehicle of 30% (v/v) PEG 400 or 20% (v/v) Tween 80 or Saline. […]
# The relative values compared to the sham group (% control) were calculated and shown in Table 5, which show an antiallodynic effect of the test compounds on SNL model in rats.
# [1] = tested on: Vincristine-induced pain model; assay: Antiallodynic activity on vincristine-induced pain model (von Frey); settings: ip, rat, intraperitoneal, 0.5 h
# Experimental: Male, Sprague-Dawley rats (300-320 g, Nara Bio, Korea) were habituated for 1 week before surgery and allowed free access to food and water throughout the experimentation. Room temperature and humidity were maintained at 24±2° C. and 50±10%, respectively.
# Vincristine was established by the procedure of Natsuko et al. (2001) with minor modifications. Vincristine was intravenously infused continuously for 14 clays using a mini-osmotic pump as follows. Vincristine sulfate solution (Hospira, Australia) was diluted with 0.9% saline to 30 ug/kg, final close. The pumps (Alzet Model 2002, USA) were filled with the vincristine solution and primed by incubation at 37° C. for 4 h before the infusion. […]
# Tactile sensitivity (Mechanical allodynia) was evaluated using von Frey monofilaments before and after treatment, and animals were used withdrawal threshold value was less than 4 g. […] The tactile sensitivity for ipsilateral hind paw was measured using the up-and-down method (Dixon, 1980) with seven von Frey monofilaments (0.4, 1, 2, 4, 6, 8, and 15 g) to 3 trials. […] The 50% paw withdrawal threshold for each paw was calculated using the following formula: [Xth] log=[vFr] log+ky where [vFr] is the force of the last von Frey used, k=0.2249 which is the average interval (in log units) between the von Frey monofilaments, and y is a value that depends upon the pattern of withdrawal responses (Dixon, 1980). […]
structure (smiles),measurement,setting,value
"CC1(C)O[C@@H](COS(N)(=O)=O)[C@H](c2ccccc2Cl)O1 [Example 2, ((4S,5S)-5-(2-chlorophenyl)-2,2-dimethyl-1,3-dioxolan-4-yl)methyl sulfamate]",ED50,CFA-induced pain model,5.9 mg/kg
same,ED50,SNL model,18.2 mg/kg
same,ED50,[1],1 mg/kg
